{"source": "patent US20250295648A1", "about": "(priority 2024, published 2025)", "key": {"[1]": {"settings": "both, human, in vivo", "from_the_text": "Based on the befiradol Cmax values observed in healthy male volunteers reported in WO 2016/005527, the sustained release compositions disclosed above in Tables 26-28 would be expected to provide Cmax values not less than those shown in Table 29 after a single oral administration to patients with Parkinson's disease. […] Therefore, the Cmax values in Table 29 for SR1-SR9 may be higher (e.g., by 10% or 20%) when administered to patients with Parkinson's disease since young adults rarely experience Parkinson's disease, which usually develops around age 60 or older."}, "[2]": {"system": "overall PD symptoms in PD patients with LID", "test": "Clinical Global Impression of Change (CGI-C)", "assay_type": "in vivo, human", "from_the_text": "The CGI-C is a clinician-oriented scale that assesses the total improvement in the patient's condition relative to the clinical global impression of severity (CGI-S) scale conducted at baseline. The CGI-C rates the patient's condition from 0 to 7, with a rating of 0 indicating “no assessment”, a rating of 1 indicating “very much better”, and a rating of 7 indicating “very much worse”."}, "[3]": {"system": "PD patients with LID", "test": "Hospital Anxiety Depression Scale (HADS)", "assay_type": "in vivo, human", "from_the_text": "The HADS is used to determine the levels of anxiety and depression that a person is experiencing. The questionnaire consists of 7 items related to anxiety and 7 related to depression. Each item on the questionnaires is scored from 0-3, which means that a person can score between 0 and 21 for either anxiety or depression."}, "[4]": {"system": "MPTP-treated marmosets", "settings": "in vivo; cited from earlier work"}, "[5]": {"test": "clinical", "settings": "human, in vivo", "protocol": "Blood was collected for NLX-112 plasma concentration measurements on Days 14, 21, 28, 42 and 70 (Visits 4, 5, 6, 7 and 9).\nThe concentration of NLX-112 was determined in 120 human plasma samples collected from the clinical study. The bioanalysis was performed in the calibration range of 1.0 ng/ml to 1620 ng/ml using a 35 μL sample volume.\nThe Qualification Runs 1 and 2 contained two calibration curves, six sets of QC samples at eight levels (QC1 to QC8), as well as UPLC and Tecan Carry-over test samples. The analytical run 1 contained two calibration curves, four sets of QC samples at three levels (QC L, M and H), as well as […] and Tecan Carry-over test samples. The qualification and analysis was performed in an exploratory setting.\nThe analytical instrumentation consisted of an Acquity UPLC system coupled to a Xevo-TQS micro tandem quadrupole mass spectrometer (Waters Corp., Milford, MA, USA). […]\nA combined calibration curve was constructed from the two sets of calibration samples for each run. […] The lower limit of quantification (LLOQ) for the method was 1.0 ng/mL and the upper limit of quantification (ULOQ) was 1620 ng/mL of NLX-112 in human plasma.\nThe mean NLX-112 blood plasma concentration measured in treated patients on study days 14 (Visit 4), […] (Visit 5), 28 (Visit 6), 42 (Visit 7), and 70 (Visit 9) is shown in Table 5. […]"}, "[6]": {"target": "T1, 5-HT1A receptors (Homo sapiens, UniProt P08908)", "T1 sequence (P08908 1-422)": "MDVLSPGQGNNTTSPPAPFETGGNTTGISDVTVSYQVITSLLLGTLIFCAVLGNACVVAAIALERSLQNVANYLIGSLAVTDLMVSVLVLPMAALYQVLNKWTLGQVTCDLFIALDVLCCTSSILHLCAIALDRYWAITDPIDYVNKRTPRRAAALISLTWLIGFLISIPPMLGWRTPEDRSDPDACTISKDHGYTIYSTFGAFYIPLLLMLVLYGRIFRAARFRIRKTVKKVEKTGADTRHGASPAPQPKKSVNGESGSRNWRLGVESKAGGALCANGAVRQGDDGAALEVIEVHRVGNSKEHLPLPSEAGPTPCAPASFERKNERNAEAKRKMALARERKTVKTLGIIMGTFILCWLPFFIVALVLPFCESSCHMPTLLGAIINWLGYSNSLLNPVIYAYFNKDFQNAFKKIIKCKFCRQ", "settings": "cited from earlier work"}, "[7]": {"system": "PD patients with LID", "test": "Epworth Sleepiness Scale (ESS)", "assay_type": "in vivo, human", "settings": "for ESS, mean change from baseline: per-protocol set", "from_the_text": "The ESS is a self-administered questionnaire with 8 questions. Respondents are asked to rate, on a 4-point scale (0-3), their usual chances of dozing off or falling asleep while engaged in 8 different activities. The ESS score (the sum of 8 item scores, 0-3) can range from 0 to 24. Ratings are based on the previous month, or in the case of this study, the intervening period since the previous clinic visit (about 3 weeks)."}, "[8]": {"settings": "per-protocol set (n = 15), Baseline"}, "[9]": {"settings": "per-protocol set, Δ D 28 (end of up-titration)"}}, "data": [{"smiles": "Cc1ccc(CNCC2(F)CCN(C(=O)c3ccc(F)c(Cl)c3)CC2)nc1", "note": "[NLX-112, (3-chloro-4-fluoro-phenyl)-[4-fluoro-4-{[(5-methyl-pyridin-2-ylmethyl)-amino]-methyl}piperidin-1-yl]methanone]", "values": [{"measurement": "Cmax in female subjects, higher than males", "setting": "[1]", "result": "20%-40"}, {"measurement": "CGI-C: proportion of patients minimally, much or very much improved", "setting": "[2]; Day 28", "result": 33, "unit": "%"}, {"measurement": "CGI-C: proportion of patients minimally, much or very much improved", "setting": "[2]; Day 42", "result": 53, "unit": "%"}, {"measurement": "CGI-C Minimally improved, number of patients", "setting": "[2]; Stable Dosing (d 42), n = 15", "result": 3}, {"measurement": "CGI-C Minimally improved, proportion of patients", "setting": "[2]; Stable Dosing (d 42), n = 15", "result": "(20%)"}, {"measurement": "CGI-C Minimally worse, number of patients", "setting": "[2]; Stable Dosing (d 42), n = 15", "result": 1}, {"measurement": "CGI-C Minimally worse, proportion of patients", "setting": "[2]; Stable Dosing (d 42), n = 15", "result": "(6.7%)"}, {"measurement": "CGI-C Much improved, number of patients", "setting": "[2]; Stable Dosing (d 42), n = 15", "result": 4}, {"measurement": "CGI-C Much improved, proportion of patients", "setting": "[2]; Stable Dosing (d 42), n = 15", "result": "(27%)"}, {"measurement": "CGI-C No change, number of patients", "setting": "[2]; Stable Dosing (d 42), n = 15", "result": 6}, {"measurement": "CGI-C No change, proportion of patients", "setting": "[2]; Stable Dosing (d 42), n = 15", "result": "(40%)"}, {"measurement": "CGI-C Total Improved, number of patients", "setting": "[2]; Stable Dosing (d 42), n = 15", "result": 8}, {"measurement": "CGI-C Total Improved, proportion of patients", "setting": "[2]; Stable Dosing (d 42), n = 15", "result": "(53%)"}, {"measurement": "CGI-C Very much improved, number of patients", "setting": "[2]; Stable Dosing (d 42), n = 15", "result": 1}, {"measurement": "CGI-C Very much improved, proportion of patients", "setting": "[2]; Stable Dosing (d 42), n = 15", "result": "(6.7%)"}, {"measurement": "CGI-C Minimally improved, number of patients", "setting": "[2]; Up-Titration (d 28), n = 15", "result": 3}, {"measurement": "CGI-C Minimally improved, proportion of patients", "setting": "[2]; Up-Titration (d 28), n = 15", "result": 20, "unit": "%"}, {"measurement": "CGI-C Minimally worse, number of patients", "setting": "[2]; Up-Titration (d 28), n = 15", "result": 1}, {"measurement": "CGI-C Minimally worse, proportion of patients", "setting": "[2]; Up-Titration (d 28), n = 15", "result": 6.7, "unit": "%"}, {"measurement": "CGI-C Much improved, number of patients", "setting": "[2]; Up-Titration (d 28), n = 15", "result": 2}, {"measurement": "CGI-C Much improved, proportion of patients", "setting": "[2]; Up-Titration (d 28), n = 15", "result": 13, "unit": "%"}, {"measurement": "CGI-C No change, number of patients", "setting": "[2]; Up-Titration (d 28), n = 15", "result": 9}, {"measurement": "CGI-C No change, proportion of patients", "setting": "[2]; Up-Titration (d 28), n = 15", "result": 60, "unit": "%"}, {"measurement": "CGI-C Total Improved, number of patients", "setting": "[2]; Up-Titration (d 28), n = 15", "result": 5}, {"measurement": "CGI-C Total Improved, proportion of patients", "setting": "[2]; Up-Titration (d 28), n = 15", "result": 33, "unit": "%"}, {"measurement": "CGI-C Very much improved, number of patients", "setting": "[2]; Up-Titration (d 28), n = 15", "result": 0}, {"measurement": "CGI-C overall PD symptoms, NLX-112 vs placebo", "setting": "[2]; days 28 and 42", "result": "no statistically significant differences"}, {"measurement": "anxiety and depression (HADS)", "setting": "[3]; Days 28 or 42", "result": "no consistent statistically significant effect"}, {"measurement": "HADS (Anxiety), mean", "setting": "[3]; [8]", "result": 4.5}, {"measurement": "HADS (Depression), mean", "setting": "[3]; [8]", "result": 3.7}, {"measurement": "HADS (Anxiety), mean change from baseline", "setting": "[3]; [9]", "result": "−0.5"}, {"measurement": "HADS (Depression), mean change from baseline", "setting": "[3]; [9]", "result": "−0.4"}, {"measurement": "HADS (Depression), mean change from baseline", "setting": "[3]; per-protocol set, Δ D 42 (end of stable dosing)", "result": "−0.6"}, {"measurement": "disability scores", "setting": "[4]", "result": "reduces disability scores"}, {"measurement": "concentration at 14 day", "setting": "[5]", "result": 32.3, "unit": "ng/mL"}, {"measurement": "concentration at 25 day", "setting": "[5]", "result": 38.7, "unit": "ng/mL"}, {"measurement": "agonist efficacy at 5-HT1A receptors", "setting": "[6]", "result": "full agonist properties"}, {"measurement": "selectivity for 5-HT1A receptors", "setting": "[6]", "result": "exceptional selectivity"}, {"measurement": "sleepiness (ESS)", "setting": "[7]; Days 28 or 42", "result": "no consistent statistically significant effect"}, {"measurement": "ESS, mean", "setting": "[7]; [8]", "result": 8.3}, {"measurement": "ESS, mean change from baseline", "setting": "[7]; Δ D 28 (end of up-titration)", "result": "−1.1"}, {"measurement": "ESS, mean change from baseline", "setting": "[7]; Δ D 42 (end of stable dosing)", "result": "−0.9"}]}]}
